What was measured:
Type in all cases: in vivo
Rhizoctonia oryzae = test: Test G: turf brown patch, preventive spray on creeping bent grass seedlings, visual disease rating; settings: 200 ppm, 100 = 100% disease control, 0 = no control; for pest or weed control at 200 ppm: Waitea circinata, in Agrostis stolonifera, 120 h
Excerpt: (§1) General protocol for preparing test suspensions for Tests A-H: The test compounds were first dissolved in acetone in an amount equal to 3% of the final volume and then suspended at the desired concentration (in ppm) in acetone and purified water (50/50 mix) containing 250 ppm of the surfactant Trem® 014 (polyhydric alcohol esters). The resulting test suspensions were then used in tests A-H. Spraying a 200 ppm test suspension to the point of run-off on the test plants was the equivalent of a rate of 500 g/ha.
The test suspension was sprayed to the point of run-off on creeping bent grass seedlings. The following day the seedlings were inoculated with a spore suspension of Rhizoctonia oryzae (the causal agent of turf brown patch) and incubated in a saturated atmosphere at 27° C. for 48 h, and then moved to a growth chamber at 27° C. for 3 days, after which time disease ratings were visually made.
(§2) Results for Tests A-H are given in Table A. In the table, a rating of 100 indicates 100% disease control and a rating of 0 indicates no disease control (relative to the controls). A dash (-) indicates no test results. All results are for compounds tested at 200 ppm except where the compound number is followed by “*” which indicates the compound was tested at 40 ppm.

Botrytis cinerea = test: Test F: tomato botrytis, preventive spray on tomato seedlings, visual disease rating; settings: 200 ppm, 100 = 100% disease control, 0 = no control; for pest or weed control at 200 ppm: Botrytis cinerea, 120 h
Method in brief: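 Tomato seedlings sprayed to run-off with compound suspended in acetone/water (50/50) plus 250 ppm Trem 014, at 200 ppm (≈500 g/ha) or 40 ppm where marked. Inoculated next day with B. cinerea spores, 48 h saturated atmosphere at 20 °C, then 3 days at 24 °C. Visual rating, 0–100% disease control relative to controls.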

Septoria tritici = test: Test C: wheat leaf blotch, preventive spray on wheat seedlings, visual disease rating; settings: 200 ppm, 100 = 100% disease control, 0 = no control; for pest or weed control at 200 ppm: Zymoseptoria tritici, 504 h
Method in brief: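 Wheat seedlings sprayed to run-off with compound in acetone/water plus 250 ppm surfactant at 200 ppm (≈500 g/ha), or 40 ppm where marked; inoculated with Septoria tritici next day. Held saturated at 20 °C for 48 h, then 19 days at 20 °C; disease control rated visually 0–100 versus controls.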

Septoria nodorum = test: Test D: wheat glume blotch, preventive spray on wheat seedlings, visual disease rating; settings: 200 ppm, 100 = 100% disease control, 0 = no control; for pest or weed control at 200 ppm: Parastagonospora nodorum, 216 h
Method in brief: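 Compounds in 3% acetone, then 50/50 acetone–water with 250 ppm Trem 014, sprayed to run-off at 200 ppm (500 g/ha; some at 40 ppm) one day before spore inoculation. Held 48 h saturated at 20 °C, then 7 days at 20 °C; visual rating as % disease control vs untreated (0–100).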

[1] = system: Puccinia recondite f. sp. tritici; test: Test B: wheat leaf rust, preventive spray on wheat seedlings, visual disease rating; settings: 200 ppm, 100 = 100% disease control, 0 = no control; for pest or weed control at 200 ppm: 192 h
Method in brief: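 Wheat seedlings were sprayed to run-off with compound suspension, 200 ppm (≈500 g/ha) or 40 ppm where marked, containing surfactant in acetone/water. Inoculation with Puccinia recondita spores followed one day later, then 24 h in saturated humidity at 20° C and 7 days at 20° C. Disease control was rated visually, 0–100% versus controls.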

Plasmopara viticola = test: Test H: grape downy mildew, spray after inoculation of grape seedlings, visual disease rating; settings: 200 ppm, 100 = 100% disease control, 0 = no control; for pest or weed control at 200 ppm: Plasmopara viticola, 192 h
Excerpt: as §1
Grape seedlings were inoculated with a spore suspension of Plasmopara viticola (the causal agent of grape downy mildew) and incubated in a saturated atmosphere at 20° C. for 24 h. After a short drying period, the test suspension was sprayed to the point of run-off on the grape seedlings, and then moved to a growth chamber at 20° C. for 6 days, after which time the test units were placed back into a saturated atmosphere at 20° C. for 24 h. Upon removal, disease ratings were visually made.
as §2

Alternaria solani = test: Test E: tomato early blight, preventive spray on tomato seedlings, visual disease rating; settings: 200 ppm, 100 = 100% disease control, 0 = no control; for pest or weed control at 200 ppm: Alternaria solani, 168 h
Method in brief: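 Seedlings sprayed to run-off with compound in acetone/water plus 250 ppm Trem 014 (200 ppm ≈ 500 g/ha), inoculated with spores next day. Held 48 h saturated at 27 °C, then 5 days at 20 °C; visual rating 0–100% disease control relative to controls.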

[2] = system: Erysiphe graminis f. sp. tritici; test: Test A: wheat powdery mildew, preventive spray on wheat seedlings, visual disease rating; settings: 200 ppm, 100 = 100% disease control, 0 = no control; for pest or weed control at 200 ppm: Blumeria graminis, 192 h
Method in brief: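 Acetone/water (50/50) suspension with 250 ppm surfactant sprayed to run-off on wheat seedlings (200 ppm ≈ 500 g/ha); inoculated next day with E. graminis spore dust. Incubated 8 days at 20° C, then visually rated 0–100% disease control versus untreated controls; tests at 200 ppm or 40 ppm.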

| Compound | pest or weed control at 200 ppm (Rhizoctonia oryzae) [%] | pest or weed control at 200 ppm (Botrytis cinerea) [%] | pest or weed control at 200 ppm (Septoria tritici) [%] | pest or weed control at 200 ppm (Septoria nodorum) [%] | pest or weed control at 200 ppm [1] [%] | pest or weed control at 200 ppm (Plasmopara viticola) [%] | pest or weed control at 200 ppm (Alternaria solani) [%] | pest or weed control at 200 ppm [2] [%] | Test G rating (% disease control) (Rhizoctonia oryzae) [%] | Test F rating (% disease control) (Botrytis cinerea) [%] | Test C rating (% disease control) (Septoria tritici) [%] | Test D rating (% disease control) (Septoria nodorum) [%] | Test B rating (% disease control) [1] [%] | Test H rating (% disease control) (Plasmopara viticola) [%] | Test E rating (% disease control) (Alternaria solani) [%] | Test A rating (% disease control) [2] [%] |
| --- | --- | --- | --- | --- | --- | --- | --- | --- | --- | --- | --- | --- | --- | --- | --- | --- |
| C=C(C)c1cnc(C)c(-c2ccc(F)cc2)c1-c1cc(OC)cc(OC)c1 [Compound 16, 4-(3,5-dimethoxyphenyl)-3-(4-fluorophenyl)-2-methyl-5-(1-methylethenyl)pyridine] | 99 | 99 | 100 | 73 | 100 | 0 | 99 | 99 |  |  |  |  |  |  |  |  |
| COc1cc(OC)cc(-c2c(-c3ccc(F)cc3F)cnc(C)c2-c2ccc(F)cc2)c1 [Compound 38] |  |  |  |  |  |  |  |  | 56 | 98 | 100 | 0 | 80 | 0 | 87 | 95 |
| CCOC(=O)c1cnc(CC)c(-c2ccccc2)c1-c1cc(OC)cc(OC)c1 [Compound 31] |  |  |  |  |  |  |  |  | 0 | 41 | 80 | 0 | 0 | 0 | 0 | 0 |
| CCOC(=O)c1cnc(C)c(-c2ccccc2)c1-c1cc(OC)c(OC)c(OC)c1 [Compound 6] |  |  |  |  |  |  |  |  | 0 | 89 | 1 | 0 | 0 | 0 | 0 | 0 |
| COc1cc(OC)cc(-c2c(-c3ccccc3F)cnc(C)c2-c2ccc(F)cc2)c1 [Compound 35] |  |  |  |  |  |  |  |  | 99 | 99 | 99 | 99 | 100 | 0 | 99 | 99 |
| COc1cc(OC)cc(-c2c(-c3ccccc3)c(C)nc(C)c2-c2ccc(F)cc2)c1 [Compound 22] |  |  |  |  |  |  |  |  | 0 | 99 | 95 | 0 | 55 | 0 | 0 | 78 |
| COc1cc(OC)cc(-c2c(-c3ccc(F)cc3)cnc(C)c2-c2ccccc2)c1 [Compound 36] |  |  |  |  |  |  |  |  | 14 | 94 | 93 | 0 | 0 | 0 | 30 | 65 |
| CCOC(=O)c1cnc(C)c(-c2ccccc2)c1-c1cc(F)cc(F)c1 [Compound 8] |  |  |  |  |  |  |  |  | 0 | 0 | 0 | 0 | 0 | 17 | 0 | 98 |
| COc1cc(OC)cc(-c2c(C(C)=O)cnc(C)c2-c2ccccc2F)c1 [Compound 17] |  |  |  |  |  |  |  |  | 60 | 99 | 100 | 0 | 98 | 0 | 46 | 96 |
| COc1cc(OC)cc(-c2c(-c3ccccc3F)c[n+]([O-])c(C)c2-c2ccc(F)cc2)c1 [Compound 39, 4-(3,5-dimethoxyphenyl)-5-(2-fluorophenyl)-3-(4-fluorophenyl)-2-methylpyridine 1-oxide] | 35 | 94 | 100 | 100 | 100 | 0 | 100 | 98 |  |  |  |  |  |  |  |  |
| CCOC(=O)c1cnc(C)c(-c2ccccc2F)c1-c1cc(OC)cc(OC)c1 [Compound 20] |  |  |  |  |  |  |  |  | 0 | 99 | 100 | 0 | 90 | 53 | 0 | 98 |
| COc1cc(OC)cc(-c2c(C(C)C)cnc(C)c2-c2ccccc2)c1 [Compound 4] |  |  |  |  |  |  |  |  | 0 | 99 | 99 | 0 | 92 | 0 | 99 | 99 |
| COc1cc(OC)cc(-c2c(C(C)C)cnc(C)c2-c2ccc(F)cc2)c1 [Compound 19, 4-(3,5-dimethoxyphenyl)-3-(4-fluorophenyl)-2-methyl-5-(1-methylethyl)pyridine] | 99 | 99 | 100 | 0 | 99 | 0 | 99 | 99 |  |  |  |  |  |  |  |  |
| CCOC(=O)c1cnc(C)c(-c2ccccc2)c1-c1cc(OC)ccc1Cl [Compound 7] |  |  |  |  |  |  |  |  | 97 | 98 | 52 | 0 | 74 | 0 | 0 | 97 |
| COc1cc(OC)cc(-c2c(C(=O)N(C)C)cnc(C)c2-c2ccccc2)c1 [Compound 10] |  |  |  |  |  |  |  |  | 0 | 80 | 33 | 0 | 0 | 0 | 8 | 96 |
| COc1cc(OC)cc(-c2c(C(C)=O)cnc(C)c2-c2c(F)cccc2F)c1 [Compound 41] |  |  |  |  |  |  |  |  | 99 | 98 | 99 | 0 | 98 | 0 | 99 | 100 |

Reference: US20110092544A1, “FUNGICIDAL PYRIDINES” (E.I. DU PONT DE nemours and company, priority 2008, published 2011)
